Laboratory results published in patent US20240174669A1, “CRYSTALLINE FORMS OF A PARP1 INHIBITOR” (XinThera, Inc., priority 2022, published 2024).
≈ marks a conversion by molar mass, not a printed value. Read-outs that look alike come from different tables or passages of the source.

Key:
Format in all cases: physicochemical
[1] = Solubility in 0.5% MC and 0.5% MC pH 3 citrate buffer; conditions: for solubility: thermodynamic from solid
Procedure: Solubility of freebase Form II was first measured in 0.5% MC (400 cPs) and 0.5% MC (400 cPs) pH 3 citrate buffer. About 5 mg of Form II (Lot#1) was stirred in 1 mL of media at RT for ˜2 hours. The suspension was filtered, with filtrates analyzed by HPLC and remaining solids tested by XRPD. […] Therefore, 0.5% MC pH 3 buffer was selected for suspension formulation stability study.

[2] = Suspension formulation stability in 0.5% MC pH 3 buffer
Procedure: About 9 mg of free base Form II (Lot#1) was added into 0.3 mL of 0.5% MC pH 3 buffer, and stirred at RT for 30 min to make a suspension with 30 mg/mL drug loading (Day 0 sample). The suspension samples in vials, prepared at the same time, were kept at RT for 3 or 7 days. At each time point, the whole suspension in a vial was dissolved in 8.7 mL water/ACN (1:1, v/v) and then was analyzed by HPLC. Sedimentation of suspension was checked by visual observation, and the solids in another vial were tested by PLM and XRPD.

[3] = DVS moisture sorption (hygroscopicity)
Procedure: Moisture sorption/desorption data were collected on a DVS instrument. About 75 mg of a sample was placed into a tared sample chamber and automatically weighed. The anhydrate was analyzed with the setting parameters in the table below.

[4] = Solubility in bio-relevant media, water and pH buffers (HPLC of filtrate, XRPD of filter cake); conditions: for solubility at 0.5 h / solubility at 2 h / solubility at 24 h / solubility / solubility at 4 h / solubility at 8 h: thermodynamic from solid; for solubility at 0.5 h: read-out: Solubility (mg/mL) 0.5 h; for solubility at 2 h: read-out: Solubility (mg/mL) 2 h; for solubility at 24 h: read-out: Solubility (mg/mL) 24 h; for Solubility (mg/mL) 0.5 h / Solubility (mg/mL) 2 h / Solubility (mg/mL) 4 h / Solubility (mg/mL) 8 h: listed as Freebase Form II (Lot #2); for solubility at 4 h: read-out: Solubility (mg/mL) 4 h; for solubility at 8 h: read-out: Solubility (mg/mL) 8 h
Procedure: About 15 mg of freebase Form II was weighed into sample vials, and then 3 mL of each media was added to make suspensions, respectively. […] Duplicated samples were prepared for each media.
HPLC analysis was performed with an Agilent HPLC 1260 series instrument.

Solid-state stability = test: Solid-state stability
Procedure: Solid-state stability of free base Form II (Lot#1) was conducted at 60° C. (capped) and 40° C./75% RH (open) for 7 days. The stability sample was dissolved in diluent to prepare solution at ˜0.5 mg/mL for HPLC purity analysis. Solid samples were analyzed by XRPD to check the crystalline form. […] (capped) and 40° C./75% RH (open) after 7 days.

[5] = 0.5% MC pH 3 buffer (100 mM citrate), RT, ~2 hours
[6] = 0.5% MC pH 3 citrate buffer, up to 7 days

solubility ([1]; 0.5% MC (400 cPs) pH 3 citrate buffer, pH 3, aqueous with cosolvent or surfactant or cyclodextrin, 0.5% MC pH 3 buffer (100 mM citrate), initial pH 3.0, RT, ~2 hours): 4500 µg/mL (≈ 10800 µM) | solubility ([1]; 0.5% MC (400 cPs), aqueous with cosolvent or surfactant or cyclodextrin, 0.5% MC, RT, ~2 hours): < 10 µg/mL | solubility ([1]; 0.5% MC (400 cPs), aqueous with cosolvent or surfactant or cyclodextrin, RT, ~2 hours): 6 µg/mL (≈ 14.3 µM) | Filtrate Purity 254 nm [1, 5]: 99.25% | XRPD of remaining solids [1, 5]: Unchanged | form change (XRPD) ([1]; both media: 0.5% MC and 0.5% MC pH 3 citrate buffer): No form change was observed | crystalline form in suspension [2, 6]: remained unchanged | purity change in suspension [2, 6]: no purity decrease was observed | Purity (area %, 220 nm) Initial ([2]; initial, before suspension): 99.25 area % | sedimentation of suspension (visual observation) ([2]; kept at RT for 3 or 7 days, homogeneous again after swirling 1 min): Sedimentation was observed | Purity (area %, 220 nm) Day 0 ([2]; suspension in 0.5% MC pH 3 buffer (100 mM citrate), 30 mg/mL, RT, Day 0): 99.30 area % | Purity (area %, 220 nm) Day 3 ([2]; suspension in 0.5% MC pH 3 buffer (100 mM citrate), 30 mg/mL, RT, Day 3): 99.28 area % | Purity (area %, 220 nm) Day 7 ([2]; suspension in 0.5% MC pH 3 buffer (100 mM citrate), 30 mg/mL, RT, Day 7): 99.26 area % | crystalline form after DVS test [3]: remained unchanged | hygroscopicity (DVS) [3]: non-hygroscopic | water uptake (DVS) ([3]; at 80% RH, 25° C.): 0.19% | solubility at 0.5 h ([4]; FaSSIF, 37 °C, pH 6.45, fassif, FaSSIF, initial pH 6.45, 37° C., 800 rpm, 0.5 h): 0.016 mg/mL (≈ 38.2 µM) | solubility at 2 h ([4]; FaSSIF, 37 °C, pH 6.45, fassif, FaSSIF, initial pH 6.45, 37° C., 800 rpm, 2 h): 0.025 mg/mL (≈ 59.7 µM) | solubility at 24 h ([4]; FaSSIF, 37 °C, pH 6.45, fassif, FaSSIF, initial pH 6.45, 37° C., 800 rpm): 0.028 mg/mL (≈ 66.9 µM) | solubility ([4]; FaSSIF, 37 °C): ~20 µg/mL (≈ 47.8 µM) | Solubility (mg/mL) 0.5 h ([4]; FaSSIF, initial pH 6.50, 0.5 h): 0.015 mg/mL (≈ 35.8 µM) | Solubility (mg/mL) 2 h ([4]; FaSSIF, initial pH 6.50, 2 h): 0.015 mg/mL (≈ 35.8 µM) | Solubility (mg/mL) 4 h ([4]; FaSSIF, initial pH 6.50, 4 h): 0.017 mg/mL (≈ 40.6 µM) | Solubility (mg/mL) 8 h ([4]; FaSSIF, initial pH 6.50, 8 h): 0.016 mg/mL (≈ 38.2 µM) | solubility at 0.5 h ([4]; FaSSIF, pH 6.5, fassif, FaSSIF, initial pH 6.50, 0.5 h): 0.016 mg/mL (≈ 38.2 µM) | solubility at 2 h ([4]; FaSSIF, pH 6.5, fassif, FaSSIF, initial pH 6.50, 2 h): 0.017 mg/mL (≈ 40.6 µM) | solubility at 4 h ([4]; FaSSIF, pH 6.5, fassif, FaSSIF, initial pH 6.50, 4 h): 0.021 mg/mL (≈ 50.2 µM) | solubility at 8 h ([4]; FaSSIF, pH 6.5, fassif, FaSSIF, initial pH 6.50, 8 h): 0.023 mg/mL (≈ 55 µM) | solubility at 0.5 h ([4]; FeSSIF, 37 °C, pH 4.89, fessif, FeSSIF, initial pH 4.89, 37° C., 800 rpm, 0.5 h): 0.087 mg/mL (≈ 208 µM) | solubility at 2 h ([4]; FeSSIF, 37 °C, pH 4.89, fessif, FeSSIF, initial pH 4.89, 37° C., 800 rpm, 2 h): 0.101 mg/mL (≈ 241 µM) | solubility at 24 h ([4]; FeSSIF, 37 °C, pH 4.89, fessif, FeSSIF, initial pH 4.89, 37° C., 800 rpm): 0.12 mg/mL (≈ 287 µM) | solubility ([4]; FeSSIF, 37 °C, pH 4.98, fessif): ~100 µg/mL (≈ 239 µM) | solubility at 8 h ([4]; FeSSIF, 37 °C, pH 4.98, fessif, FeSSIF, initial pH 4.98, 8 h): 0.105 mg/mL (≈ 251 µM) | Solubility (mg/mL) 0.5 h ([4]; FeSSIF, initial pH 4.98, 0.5 h): 0.087 mg/mL (≈ 208 µM) | Solubility (mg/mL) 2 h ([4]; FeSSIF, initial pH 4.98, 2 h): 0.089 mg/mL (≈ 213 µM) | Solubility (mg/mL) 4 h ([4]; FeSSIF, initial pH 4.98, 4 h): 0.096 mg/mL (≈ 229 µM) | Solubility (mg/mL) 8 h ([4]; FeSSIF, initial pH 4.98, 8 h): 0.101 mg/mL (≈ 241 µM) | solubility at 0.5 h ([4]; FeSSIF, pH 4.98, fessif, FeSSIF, initial pH 4.98, 0.5 h): 0.085 mg/mL (≈ 203 µM) | solubility at 2 h ([4]; FeSSIF, pH 4.98, fessif, FeSSIF, initial pH 4.98, 2 h): 0.09 mg/mL (≈ 215 µM) | solubility at 4 h ([4]; FeSSIF, pH 4.98, fessif, FeSSIF, initial pH 4.98, 4 h): 0.097 mg/mL (≈ 232 µM) | solubility at 0.5 h ([4]; SGF, 37 °C, pH 1.27, simulated gastric fluid, SGF, initial pH 1.27, 37° C., 800 rpm, 0.5 h): > 5 mg/mL | solubility at 2 h ([4]; SGF, 37 °C, pH 1.27, simulated gastric fluid, SGF, initial pH 1.27, 37° C., 800 rpm, 2 h): > 5 mg/mL | solubility at 24 h ([4]; SGF, 37 °C, pH 1.27, simulated gastric fluid, SGF, initial pH 1.27, 37° C., 800 rpm): > 5 mg/mL | solubility ([4]; SGF, 37 °C, simulated gastric fluid): > 5000 µg/mL | crystalline form during solubility test (XRPD of filter cake) ([4]; all media, up to 24 hours): remained unchanged | solubility ([4]; pH 5.0 buffer, 37 °C, pH 5, aqueous buffer): ~50 µg/mL (≈ 119 µM) | solubility at 0.5 h ([4]; pH 5.0 buffer, 37 °C, pH 5, aqueous buffer, pH 5.0 buffer, initial pH 4.94, 37° C., 800 rpm, 0.5 h): 0.045 mg/mL (≈ 108 µM) | solubility at 2 h ([4]; pH 5.0 buffer, 37 °C, pH 5, aqueous buffer, pH 5.0 buffer, initial pH 4.94, 37° C., 800 rpm, 2 h): 0.05 mg/mL (≈ 119 µM) | solubility at 24 h ([4]; pH 5.0 buffer, 37 °C, pH 5, aqueous buffer, pH 5.0 buffer, initial pH 4.94, 37° C., 800 rpm): 0.061 mg/mL (≈ 146 µM) | solubility ([4]; pH 6.5 buffer, 37 °C, pH 6.5, aqueous buffer): ~10 µg/mL (≈ 23.9 µM) | solubility at 0.5 h ([4]; pH 6.5 buffer, 37 °C, pH 6.5, aqueous buffer, pH 6.5 buffer, initial pH 6.43, 37° C., 800 rpm, 0.5 h): 0.007 mg/mL (≈ 16.7 µM) | solubility at 2 h ([4]; pH 6.5 buffer, 37 °C, pH 6.5, aqueous buffer, pH 6.5 buffer, initial pH 6.43, 37° C., 800 rpm, 2 h): 0.008 mg/mL (≈ 19.1 µM) | solubility at 24 h ([4]; pH 6.5 buffer, 37 °C, pH 6.5, aqueous buffer, pH 6.5 buffer, initial pH 6.43, 37° C., 800 rpm): 0.01 mg/mL (≈ 23.9 µM) | solubility at 0.5 h ([4]; water, 37 °C, pH 4.18, water, Water, initial pH 4.18, 37° C., 800 rpm, 0.5 h): 0.007 mg/mL (≈ 16.7 µM) | solubility at 2 h ([4]; water, 37 °C, pH 4.18, water, Water, initial pH 4.18, 37° C., 800 rpm, 2 h): 0.008 mg/mL (≈ 19.1 µM) | solubility at 24 h ([4]; water, 37 °C, pH 4.18, water, Water, initial pH 4.18, 37° C., 800 rpm): 0.01 mg/mL (≈ 23.9 µM) | solubility ([4]; water, 37 °C): ~10 µg/mL (≈ 23.9 µM) | Purity (area %) @7 D 40° C./75% RH (Solid-state stability; 40° C./75% RH (open), 7 days): 99.26 area % | XRPD @7 D 40° C./75% RH (Solid-state stability; 40° C./75% RH (open), 7 days): Unchanged | solid-state stability (Solid-state stability; 60° C. (capped) and 40° C./75% RH (open), after 7 days): physically and chemically stable | Purity (area %) @7 D 60° C. (Solid-state stability; 60° C. (capped), 7 days): 99.25 area % | XRPD @7 D 60° C. (Solid-state stability; 60° C. (capped), 7 days): Unchanged | Purity (area %) Initial (Solid-state stability; initial): 99.26 area %
Structure (SMILES): CNC(=O)c1ccc(N2CCN(Cc3cnc4cc(C5CC5)c(=O)[nH]c4c3)CC2)cn1 [Freebase Form II, 5-(4-((7-cyclopropyl-6-oxo-5,6-dihydro-1,5-naphthyridin-3-yl)methyl)piperazin-1-yl)-N-methylpicolinamide]
